One data set relates to MRSA. The experiment in a line: PET/CT in MRSA myositis murine model. It counts as in vivo, mice. The following applies: for ratio of live/heat-killed S. aureus inoculated sites, in vivo: PET 80 min postinjection (mid time). The procedure: We next compared [^18F]-FNT and [^18F]-FMT PET in a S. aureus myositis model. […] To compare the in vivo detection sensitivity of [^18F]-FNT and [^18F]-FMT in a MRSA myositis model, we injected the left deltoid with live MRSA and the right deltoid with 10x heat-killed MRSA, respectively (Figure B).
All animal procedures were conducted in accordance with UCSF institutional guidelines and were approved by the Institutional Animal Care and Use Committee (IACUC). Female CBA/J mice (9 and 11 weeks old) were used for the study. Pulmonary infection and bacterial myositis models were established based on previously published protocols. , For pulmonary infection, 50 μL of K. pneumoniae (5 × 10^6 CFU) or 10× heat-killed K. pneumoniae were administered intranasally under anesthesia 24 h prior to imaging using PET. After PET scans, infected lungs were homogenized in PBS and plated on LB agar. Plates were incubated overnight at 37 °C to quantify the bacterial burden. […] Immediately following all imaging studies, target tissues were harvested, and radioactivity was measured using a gamma counter.
(§1) μPET/CT imaging was conducted using a nanoScan μPET/CT instrument (PET123S/CT1512, Mediso). Mice were anesthetized with 2% isoflurane/oxygen for intravenous administration of ^18F-tracers (∼5 MBq in 150 μL) via tail vein and maintained during data acquisition. PET data of uninfected mice were acquired in the list mode for 90 min, starting immediately after ^18F-tracer administration, followed by a CT scan. The PET data were reconstructed into three-dimensional volumes and coregistered with CT images using manufacturer-provided software in 53 dynamic frames (15 × 2 s, 6 × 5 s, 6 × 10 s, 4 × 30 s, 6 × 30 s, and 16 × 300 s). PET data of infected mice were acquired for 20 min, starting at 70 min postinjection of ^18F-tracer (mid time 80 min), followed by a CT scan. The list mode PET data were reconstructed into three-dimensional volumes in a single static frame. All PET scans were corrected for ^18F decay, dead time, and random coincidences and reconstructed into a 160 × 160 × 184 matrix with voxel size 0.8 mm using a three-dimensional ordered subject expectation maximization (OSEM) algorithm (40 iterations, 1 subset). Both attenuation and scatter corrections were applied to PET reconstructions using the coregistered CT. ROIs were drawn manually around the brain, lungs, liver, kidney, and urinary bladder using Amide software to generate image-derived TACs. For the estimation of blood pool radioactivity over time, ROIs were drawn on the left atrium. To estimate the plasma half-life of tracers, the TAC of the blood pool was fitted to a two-compartment model using a biexponential decay function: C t(t) = Ae ^–αt + Be ^ ‑βt , where C t(t) is the tracer concentration (% IDcc^–1) at time (t), A and B are the intercepts, and α and β are the distribution and elimination rate constants, respectively. , Quantitative uptake values are expressed as % IDcc^–1, representing the percent of the total injected dose per cubic centimeter. For the S. aureus myositis model, identical volume ROIs were drawn corresponding to the peak uptake of [^18F]-FNT at the live S. aureus inoculated site and heat-killed S. aureus inoculated site, respectively.

Data set [1] is described as follows: Dynamic PET/CT and ex vivo biodistribution in uninfected mice. Conditions: for ex vivo residual activity in organs versus [18F]FDS: heart, lung, stomach, liver, intestine, kidney, muscle, after 90 min PET/CT; for peak uptake (Cmax) in bladder / peak uptake (Cmax) in kidneys / peak uptake (Cmax) in liver: dynamic PET 90 min; for elimination half-life (T1/2β) / plasma distribution half-life (T1/2α): blood pool TAC, two-compartment fit. As to the method:
To assess the effect of [^18F]-FDS glycosylation on tissue uptake in vivo, we performed dynamic PET/CT scans for 90 min after the intravenous injection of [^18F]-FNT, [^18F]-FMT, and [^18F]-FDS in uninfected mice, followed by ex vivo analysis.
as §1

Another data set relates to K. pneumoniae. Briefly: In vitro uptake of 18F-tracers by bacteria. It counts as cell-based, Klebsiella pneumoniae. As to the method:
(§2) In vitro evaluation of ^18F-tracers was conducted according to our established procedure. Briefly, bacteria were incubated overnight at 37 °C, subcultured into a fresh medium at an initial OD600 of 0.05, and then allowed to reach the mid log phase (OD600 ∼ 0.4). The cultures were subsequently incubated with ^18F-tracers (final concentration: 0.1 MBq/mL) at 37 °C for 90 min. Subsequently, 300 μL aliquots of these cultures were centrifuged at 13,200 rpm for 6 min. The resulting pellets were washed with 300 μL of phosphate-buffered saline (PBS). The radioactivity of the pellets and supernatants was measured using a gamma counter. Uptake values were normalized to colony-forming units (CFUs).

Data set [2] can be described thus: In vitro stability in serum. The class given is in vitro ADME, mouse. The following applies: up to 120 min at 37 °C.
Data set [3] in a line: Human radiation dosimetry extrapolated from murine biodistribution. The class given is in vivo. The procedure: A dosimetry study was carried out in female CBA/J mice (n = 4, 9–11 weeks). Human organ and whole-body effective doses were extrapolated from the mice biodistribution data according to our previous report. For each organ, absorbed and equivalent doses (mGy/MBq or mSv/MBq), as well as whole-body effective doses (mSv/MBq), were calculated from murine data. Dose estimations were performed with OLINDA software (v1.1 and 2.0 with ICRP 60 and 103 tissue weighting factors). ,

A short description of data set [4]: Radio-HPLC analysis of urine samples (metabolic stability in vivo). The following applies: urine from healthy mice 90 min after i.v. administration. As to the method:
7 Dosimetry extrapolated to humans and metabolic stability of [^18F]-FNT. (A) Estimated absorbed dose (mGy/MBq) extrapolated from murine biodistribution data using ICRP103 (adult female, 60 kg). (B–D) Representative radio-HPLC profiles of [^18F]-FDS (B), [^18F]-FNT (C), and urine samples collected from healthy mice 90 min following [^18F]-FNT administration via i.v. (D).

In a further data set the test system is S. aureus (ATCC 29213). Briefly: In vitro uptake of 18F-tracers by bacteria. The class given is cell-based, Staphylococcus aureus. As to the method: as §2
For another data set, the system named is Streptococcus agalactiae. Briefly: In vitro uptake of 18F-tracers by bacteria. The class given is cell-based. Conditions: S. agalactiae; 37 °C, 90 min. The procedure:
as §2

Data set [5] concerns methicillin-resistant S. aureus (MRSA) clinical isolates. Briefly: In vitro uptake in clinical isolates. It counts as cell-based, Staphylococcus aureus. The following applies: P < 0.0001. The procedure: as §2
In data set [6] the test system is methicillin-sensitive S. aureus (MSSA) clinical isolates. Briefly: In vitro uptake in clinical isolates. The class given is cell-based, Staphylococcus aureus. The following applies: vs S. aureus ATCC 29213; P < 0.0001. As to the method:
as §2

Each structure is given as a SMILES string. Where only a bound is given, the exact number is not on record here.

For `OC[C@@H](O)[C@@H](O[C@H]1O[C@H](CO)[C@@H](O)[C@H](O)[C@H]1O)[C@H](O)[C@@H]([18F])CO` [[18F]FMT, 2-deoxy-2-[18F]fluoro-D-maltitol], in the data set on MRSA (MRSA myositis), the “ratio of live/heat-killed S. aureus inoculated sites, in vivo” value is 6 fold. Moreover, in the data set on MRSA (MRSA myositis, ex vivo analysis), the “ratio of live/heat-killed S. aureus inoculated sites, ex vivo” value is 2.7 fold. The “ex vivo residual activity in organs versus [18F]FDS” value in [1] is recorded as “significantly lower residual activity”. Moreover, in data set [1] (uninfected mice, i.v.), the “peak uptake (Cmax) in bladder” value is 562.7 ± 31.3 % IDcc^–1, the “peak uptake (Cmax) in kidneys” value came to 102.3 ± 8.4 % IDcc^–1 and the “peak uptake (Cmax) in liver” value was 17.7 ± 0.9 % IDcc^–1. Moreover, in data set [1] (uninfected mice), the “elimination half-life (T1/2β)” value came out at 12.70 min and the “plasma distribution half-life (T1/2α)” value is reported as 0.55 min. Moreover, the in vitro uptake entry with K. pneumoniae is recorded as “considerable uptake”. The “in vitro stability in mouse serum” value in [2] is on record as “intact”.
On to `OC[C@@H](O)[C@@H](O)[C@H](O[C@H]1O[C@H](CO)[C@@H](O)[C@H](O)[C@H]1O)[C@@H]([18F])CO` [[18F]FNT, 2-deoxy-2-[18F]fluoro-D-nigeritol], for which the “calculated human effective dose” value in [3] (ICRP 60) is given as 0.0163 ± 0.0012 mSv/MBq. Besides, in data set [3] (ICRP 60 model), the kidneys dose is reported as 0.0753 ± 0.0307 mSv/MBq and the urinary bladder dose is listed as 0.1783 ± 0.0314 mSv/MBq. Besides, in [3] (ICRP 103), the “calculated human effective dose” value is reported as 0.0126 ± 0.0005 mSv/MBq. In addition, in [3] (ICRP 103 model), the kidneys dose is 0.0751 ± 0.0307 mSv/MBq and the urinary bladder dose is recorded as 0.1518 ± 0.0262 mSv/MBq. Further, the “estimated organ-absorbed doses overall” value in [3] (overall, called low) is given as greater than 0.02 mSv/MBq. Further, the “ratio of live/heat-killed S. aureus inoculated sites, in vivo” value with MRSA (MRSA myositis) is reported as roughly 28 fold. The “uptake at heat-killed sites, dynamic PET” value with MRSA (by 70 min postinjection) was “negligible”. Besides, in the data set on MRSA (inoculum 10^4 CFU, not significant vs uninfected controls (P = 0.2187)), the “PET signal at live MRSA inoculated deltoid, 10^4 CFU” value is on record as “negligible signals”. In addition, the “PET signal at sites inoculated with heat-killed MRSA” value in the data set with MRSA (static PET/CT 80 min postinjection (mid time)) is “no detectable signal”. Besides, the “ex vivo residual activity in organs versus [18F]FDS” value in [1] is listed as “significantly lower residual activity”. In addition, in data set [1] (uninfected mice, i.v.), the “area under the curve (AUC0→90min) in bladder” value is reported as 44418.3 ± 950.9 % IDcc^–1·min, the “area under the curve (AUC0→90min) in liver” value came out at 105.7 ± 4.0 % IDcc^–1·min, the “peak uptake (Cmax) in bladder” value was 606.8 ± 9.0 % IDcc^–1 and the “peak uptake (Cmax) in kidneys” value came to 104.5 ± 14.2 % IDcc^–1. Besides, in [1] (uninfected mice, i.v.), the “peak uptake (Cmax) in liver” value is on record as 19.2 ± 0.9 % IDcc^–1. Further, in data set [1] (uninfected mice), the “elimination half-life (T1/2β)” value is reported as 14.07 min and the “plasma distribution half-life (T1/2α)” value turned out to be 0.52 min. Further, the in vitro uptake entry in the data set on K. pneumoniae is listed as “considerable uptake”. Also, in data set [4], the “metabolic stability in vivo (urine radio-HPLC)” value is “remained intact, with no degradation observed”. Besides, the “uptake in the presence of nonradioactive [19F]FNT (blocking)” value in the data set with S. aureus (ATCC 29213) (S. aureus ATCC 29213, 1 mM [19F]FNT, P < 0.0001) was “significantly reduced”. In addition, the in vitro uptake result with S. aureus (ATCC 29213) (S. aureus, 37 °C, 90 min) is given as “moderate uptake”. Further, the “uptake in heat-killed S. aureus” value in the data set with S. aureus (ATCC 29213) (heat-killed bacteria, P < 0.0001) is “no uptake”. In the data set with Streptococcus agalactiae, the in vitro uptake entry is reported as “low”. Further, in data set [5] (in vitro), the “higher uptake in clinically isolated MRSA compared with [18F]FMT” value is on record as “approximately 4 fold”. Moreover, the “uptake in clinical MRSA isolates compared to the reference MSSA strain” value in data set [5] (vs S. aureus ATCC 29213) was “higher uptake”. In [6], the “uptake in clinical MSSA isolates compared to the reference MSSA strain” value was “higher uptake”. In data set [2], the “in vitro stability in mouse serum” value is given as “intact”.

Source of the values: PMC12728616, “Regioselective Glycosylation of Fluorine-18-Labeled Sorbitol for Enhanced Bacterial Detection In Vivo Using PET” (JACS Au, 2025).
